Data on 16 molecules can be found in PubChem BioAssay (NCI).

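Grown in 96-well plates, cells were treated for 48 hours with each compound at five concentrations. Insufficient inhibition: endpoint recorded as highest concentration tested. TGI: concentration producing complete growth inhibition.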

Common to all, as to test: NCI anticancer screen, dose series, 48 h
The test system of test [1] is 786-0 renal.
Test [2] deals with BT-549 breast.
For test [3], the system named is HT29 colon.
The subject of test [4] is MDA-N.
The subject of test [5] is OVCAR-3 ovarian.
Test [6] has as its system SF-268 CNS.
The subject of test [7] is SF-539 CNS.
Test [8] deals with SR leukemia.
The subject of test [9] is T-47D breast.
The test system of test [10] is U251 CNS.
The subject of test [11] is UACC-62 melanoma.

With `C(/Cc1ccc2c(c1)OCO2)=N\NC1=NCCCN1`, the TGI in test [1], in test [2], in test [3], in test [4], in test [5] and in test [6] was above 100 µM each time. In addition, the TGI in [7] was above 100 µM; in test [8], 70.2 µM; in test [9], above 100 µM; in test [10], above 100 µM; in test [11], above 100 µM.
As to `NCCC1CN(C(=O)OCc2ccccc2)c2ccccc21` (stereo unspecified), the TGI in [1] is 29.8 µM; in [2] it was 40.4 µM; in test [3] it was 25.8 µM; in test [4], 26.6 µM; in test [5], 45.6 µM; in test [6] it was 39.4 µM. In addition, the TGI was found to be 14.4 µM in test [7]; 10.1 µM in test [8]; 28 µM in test [9]; 32.4 µM in test [10]; 33.2 µM in test [11].
`CN(C)C(=S)Oc1ccc2ccc(=O)oc2c1`: the TGI in test [1], in test [2], in [3], in test [4], in [5] and in test [6] was above 100 µM throughout. The TGI in test [7], in test [8], in test [9], in test [10] and in [11] was above 100 µM in each case.
As for `CCOP(=O)(OCC)/C(C#N)=C/c1cccn1Cc1ccccc1`, the TGI in [1] is above 100 µM; in test [2], 74.7 µM; in test [3] it was above 100 µM; in [4] it was 92.4 µM; in test [5], above 100 µM; in [6], above 100 µM. In addition, the TGI was 36.1 µM in [7]; above 100 µM in test [8]; 74 µM in test [9]; 57.9 µM in test [10]; 55 µM in [11].
Regarding `NC1=NCC(CN2CCCC2)O1` (stereo unspecified), the TGI in test [1], in test [2], in [3], in test [4], in test [5] and in [6] was above 100 µM throughout. Besides, the TGI in test [7], in test [8], in test [9], in test [10] and in [11] was above 100 µM each time.
Turning to `CCOC(=O)C(=O)C(=O)NN(C)C1=NCCN1`, the TGI in test [1], in test [2], in test [3], in test [4], in test [5] and in test [6] was above 100 µM in each case. For the same molecule, the TGI in test [7], in test [8], in test [9], in test [10] and in test [11] was above 100 µM throughout.
Turning to `O=C1CC(n2cccc2)c2c(Br)sc(Br)c21` (stereo unspecified), the TGI is 43.8 µM in test [1]; 34.3 µM in test [2]; 32.1 µM in test [3]; 31.6 µM in test [4]; 33.2 µM in test [5]; 31.2 µM in [6]. For the same molecule, the TGI in test [7] came out at 35 µM; in test [8] it was 12 µM; in test [9], 46.3 µM; in [10], 28.4 µM; in [11], 30.3 µM.
In the case of `Cc1nc2ccc(Cl)cc2c2c1CCN2c1ccccc1`, the TGI in test [1] was 25.2 µM; in test [2] it was 31.2 µM; in test [3] it was above 100 µM; in test [4], 10.1 µM; in test [5], 44.1 µM; in test [6] it was 83.9 µM. Besides, the TGI in test [7] was 28.8 µM; in test [8], 36.3 µM; in test [9], 36.3 µM; in test [10] it was 35.2 µM; in [11], 23.6 µM.
For `Nc1nc(Cl)cc(NCC2(O)CCCC2)n1`, the TGI in test [1], in test [2], in test [3], in test [4], in test [5] and in test [6] was above 100 µM each time. Besides, the TGI in test [7], in test [8], in [9], in test [10] and in [11] was above 100 µM in each case.
Regarding `COC(=O)c1c(C)nc(C)c(NO)c1-c1ccccc1C(F)(F)F`, the TGI in [1] was 30.2 µM; in test [2] it was 30.8 µM; in test [3], 33.7 µM; in test [4] it was 30.5 µM; in test [5], 30.3 µM; in test [6] it was above 100 µM. Also, the TGI is 38.6 µM in [7]; above 100 µM in test [8]; 66.1 µM in test [9]; above 100 µM in test [10]; above 100 µM in test [11].
For the molecule `CCOC(=O)C1CCCCN1CCc1c[nH]c2ccccc12` (stereo unspecified), the TGI in test [1], in [2], in [3], in test [4], in [5] and in [6] was above 100 µM in each case. Moreover, the TGI in test [7] was above 100 µM; in [8] it was above 100 µM; in test [9], 97.1 µM; in test [10], above 100 µM; in [11], above 100 µM.
Consider `O=C(NNCc1ccc(Cl)cc1)Nc1cccc2ccccc12`, for which the TGI in [1], in [2], in [3], in [4], in test [5] and in test [6] was above 100 µM each time. The TGI in test [7], in test [8], in test [9], in [10] and in test [11] was above 100 µM in each case.
`Cc1ccc(-c2n[nH]c(=O)n2/N=C\c2ccccc2)cc1`: the TGI in [1] is above 100 µM; in [2] it was above 73.8 µM; in test [3], above 100 µM; in test [4], above 93.9 µM; in test [5], above 100 µM; in [6] it was above 89.1 µM. For the same molecule, the TGI in test [7], in [8], in [9], in [10] and in test [11] was above 100 µM throughout.
Take `O=c1cc(NCc2ccncc2)[nH]c(=O)[nH]1`: the TGI in test [1], in [2], in test [3], in test [4], in [5] and in [6] was above 100 µM each time. For the same molecule, the TGI in [7], in [8], in test [9], in test [10] and in test [11] was above 100 µM in each case.
On to `CC1OC2OC3C(OCC(O)C3O)OC(=O)[C@]34CCC(C)(C)CC3C3=CCC5[C@@]6(C)C[C@H](O)[C@H](OC7OC(CO)C(O)C(O)C7OC7OCC(OC(=O)CC(C)(O)CC(=O)OC1C(OC1OC(CO)C(O)C(O)C1O)C2O)C(O)C7O)[C@@](C)(CO)C6CC[C@@]5(C)[C@]3(C)CC4` (stereo partly specified), for which the TGI in test [1] was 15.5 µM; in test [2], 21.1 µM; in [3], 19.4 µM; in test [4] it was 7.76 µM; in [5] it was 19.3 µM; in test [6], 22.2 µM. For the same molecule, the TGI was found to be 26.8 µM in [7]; 17 µM in test [8]; 20.3 µM in test [9]; 18.6 µM in test [10]; 19.2 µM in test [11].
On to `NCCOCC(N)C(=O)O` (stereo unspecified), for which the TGI in test [1], in [2], in test [3], in test [4], in test [5] and in test [6] was above 100 µM in each case. Further, the TGI in [7], in test [8], in test [9], in test [10] and in test [11] was above 100 µM throughout.
